ChEMBL document CHEMBL4699508, “Bioactivity-Guided Discovery of Human Carboxylesterase Inhibitors from the Roots of Paeonia lactiflora” (J Nat Prod, 2020)
pIC50: −log10 of the molar value.

Key:
[1] = target: T1, Liver carboxylesterase 1 (Homo sapiens, UniProt P23141); test: Inhibition of CES1A1 in human liver microsomes using D-luciferin methyl ester as substrate preincubated for 10 mins followed by substrate addition and measured after 10 mins by fluorescence assay
T1 sequence (P23141 whole entry): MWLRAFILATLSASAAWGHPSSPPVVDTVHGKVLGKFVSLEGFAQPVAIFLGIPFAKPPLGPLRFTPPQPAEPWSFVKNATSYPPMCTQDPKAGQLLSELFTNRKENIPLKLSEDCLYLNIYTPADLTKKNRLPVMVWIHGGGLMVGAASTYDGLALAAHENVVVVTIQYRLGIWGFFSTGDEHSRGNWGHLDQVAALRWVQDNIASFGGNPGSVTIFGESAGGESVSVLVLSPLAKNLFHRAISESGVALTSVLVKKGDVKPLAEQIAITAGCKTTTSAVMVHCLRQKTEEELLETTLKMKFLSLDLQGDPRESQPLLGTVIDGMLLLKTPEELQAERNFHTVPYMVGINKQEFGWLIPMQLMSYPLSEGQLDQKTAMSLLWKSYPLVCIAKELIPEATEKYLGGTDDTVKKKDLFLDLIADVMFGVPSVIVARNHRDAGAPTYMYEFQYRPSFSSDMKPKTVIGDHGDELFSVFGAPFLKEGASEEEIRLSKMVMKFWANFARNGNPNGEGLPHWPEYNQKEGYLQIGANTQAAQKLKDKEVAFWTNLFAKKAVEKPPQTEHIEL

[2] = species on record: Homo sapiens; test: Selectivity ratio of IC50 for inhibition of CES2A1 in human liver microsomes to IC50 for CES1A1 in human liver microsomes; details: Microsome

Structure (SMILES)	pIC50 [1]	Ratio IC50 [2]
CC1(C)CC[C@]2(C(=O)O)CC[C@]3(C)C(=CC[C@@H]4[C@@]5(C)CC[C@H](O)C(C)(C)[C@@H]5CC[C@]43C)[C@@H]2C1 [OLEANOLIC_ACID]	7.00	30
C=C(C)[C@@H]1CC[C@]2(C(=O)O)CC[C@]3(C)[C@H](CC[C@@H]4[C@@]5(C)CC[C@H](O)[C@@](C)(CO)[C@@H]5CC[C@]43C)[C@@H]12	7.00	30
C=C(C)[C@@H]1CC[C@]2(C)CC[C@]3(C)[C@H](CC[C@@H]4[C@@]5(C)CC[C@H](O)C(C)(C)[C@@H]5CC[C@]43C)[C@@H]12 [LUPEOL]	7.00	30
C=C1CC[C@]2(C(=O)O)CC[C@]3(C)C(=CC[C@@H]4[C@@]5(C)CC[C@H](O)[C@@](C)(CO)[C@@H]5CC[C@]43C)[C@@H]2C1	7.00	30
C[C@H]1[C@H](C)CC[C@]2(C(=O)O)CC[C@]3(C)C(=CC[C@@H]4[C@@]5(C)CC[C@H](O)C(C)(C)[C@@H]5CC[C@]43C)[C@H]12 [URSOLIC ACID]	7.00	30

Now from value to molecule:

pIC50 [1]	Ratio IC50 [2]	Structure (SMILES)
7.00	30	CC1(C)CC[C@]2(C(=O)O)CC[C@]3(C)C(=CC[C@@H]4[C@@]5(C)CC[C@@H]6OC(C)(C)OC[C@@]6(C)[C@@H]5CC[C@]43C)[C@@H]2C1
7.00	30	C=C(C)[C@@H]1CC[C@]2(C(=O)O)CC[C@]3(C)[C@H](CC[C@@H]4[C@@]5(C)CC[C@@H]6OC(C)(C)OC[C@@]6(C)[C@@H]5CC[C@]43C)[C@@H]12
7.00	30	C=C1CC[C@]2(C(=O)O)CC[C@]3(C)C(=CC[C@@H]4[C@@]5(C)CC[C@@H]6OC(C)(C)OC[C@@]6(C)[C@@H]5CC[C@]43C)[C@@H]2C1
7.00	–	CC1(C)CC[C@]2(C)CC[C@]3(C)C(=CC[C@@H]4[C@@]5(C)CCC(=O)C(C)(C)[C@@H]5CC[C@]43C)[C@@H]2C1
